Assay results as given in PMC10649961, “Novel Mitochondria-Targeted Amphiphilic Aminophosphonium Salts and Lipids Nanoparticles: Synthesis, Antitumor Activity and Toxicity” (Nanomaterials, 2023).
Where two headings read alike, the source gives them in different places.

How the values were obtained:
Hep G2 [1] = test system: Hep G2
MCF-7 [2] = experiment: cells; conditions: Homo sapiens, MCF7, 48 h, read-out: Cytotoxic Effects (IC50)
DU-145 [3] = test system: DU-145
A549 [4] = test system: A549
[5] = test system: Bacillus cereus ATCC 10702 NCTC 8035; experiment: Antimicrobial activity, serial microdilutions, Bc; assay type: cell-based; set-up: key to Minimum bactericidal and fungicidal concentrations (MBC, MFC): – means non-active; conditions: for MIC / MBC: Bacillus cereus; for MIC: read-out: Minimum Inhibitory Concentration (MIC); for MBC: read-out: Minimum bactericidal and fungicidal concentrations (MBC, MFC)
Method in brief: (§1)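 Serial microdilution in Mueller-Hinton broth for bacteria and Sabouraud broth for yeast. MRSA-1 is a clinical methicillin-resistant S. aureus isolate from a chronic tonsillitis patient. Run in triplicate.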

[6] = test system: Staphylococcus aureus ATCC 6538 P FDA 209P; experiment: Antimicrobial activity, serial microdilutions, Sa; assay type: cell-based; conditions: Staphylococcus aureus; for MIC: read-out: Minimum Inhibitory Concentration (MIC); for MBC: read-out: Minimum bactericidal and fungicidal concentrations (MBC, MFC)
Method in brief: (§2)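 Compounds were serially diluted in broth: Mueller-Hinton for the bacterial strains, Sabouraud for the yeast. Each determination was done in triplicate.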

MCF-7 [7] = test system: MCF-7
HuTu 80 [8] = test system: HuTu 80
PANC-1 [9] = test system: PANC-1
HuTu 80 [10] = experiment: cells; conditions: Homo sapiens, HuTu80, 48 h, read-out: Cytotoxic Effects (IC50)
[11] = test system: Candida albicans ATCC 10231; experiment: Antimicrobial activity, serial microdilutions, Ca; assay type: cell-based; set-up: key to Minimum Inhibitory Concentration (MIC) / Minimum bactericidal and fungicidal concentrations (MBC, MFC): – means non-active; conditions: Ca
Method in brief: as §1

PANC-1 [12] = experiment: cells; conditions: Homo sapiens, PANC-1, 48 h, read-out: Cytotoxic Effects (IC50)
MRSA-2 = experiment: Antimicrobial activity, serial microdilutions, MRSA-2; assay type: cell-based, S. aureus; conditions: Staphylococcus aureus; for MIC: read-out: Minimum Inhibitory Concentration (MIC); for MBC: read-out: Minimum bactericidal and fungicidal concentrations (MBC, MFC)
Method in brief: as §2

M-HeLa [13] = experiment: cells; conditions: Homo sapiens, 48 h, read-out: Cytotoxic Effects (IC50)
M-HeLa [14] = test system: M-HeLa
Hep G2 [15] = experiment: cells; conditions: Homo sapiens, HepG2, 48 h, read-out: Cytotoxic Effects (IC50)
T98G [16] = test system: T98G
[17] = test system: Enterococcus faecalis ATCC 29212; experiment: Antimicrobial activity, serial microdilutions, Ef; assay type: cell-based; set-up: key to Minimum Inhibitory Concentration (MIC) / Minimum bactericidal and fungicidal concentrations (MBC, MFC): – means non-active; conditions: for MIC: Enterococcus faecalis, ATCC29212, read-out: Minimum Inhibitory Concentration (MIC)
Method in brief: as §2

A549 [18] = experiment: cells; conditions: Homo sapiens, A549, 48 h, read-out: Cytotoxic Effects (IC50)
SK-OV-3 [19] = conditions: reference normal cell line not marked at the place (ns cells)
DU-145 [20] = experiment: cells; conditions: Homo sapiens, DU-145, 48 h, read-out: Cytotoxic Effects (IC50), DU-145, MTT assay, 48 h
SK-OV-3 [21] = experiment: cells; conditions: Homo sapiens, SK-OV-3, 48 h, read-out: Cytotoxic Effects (IC50)
MRSA-1 = experiment: Antimicrobial activity, serial microdilutions, MRSA-1; assay type: cell-based, S. aureus; conditions: Staphylococcus aureus; for MIC: read-out: Minimum Inhibitory Concentration (MIC); for MBC: read-out: Minimum bactericidal and fungicidal concentrations (MBC, MFC)
Method in brief: as §1

[22] = test system: Escherichia coli ATCC 25922; experiment: Antimicrobial activity, serial microdilutions, Ec; assay type: cell-based; set-up: key to Minimum Inhibitory Concentration (MIC) / Minimum bactericidal and fungicidal concentrations (MBC, MFC): – means non-active
Method in brief: as §1

T98G [23] = experiment: cells; conditions: Homo sapiens, 48 h, read-out: Cytotoxic Effects (IC50)
[24] = test system: Pseudomonas aeruginosa ATCC 9027; experiment: Antimicrobial activity, serial microdilutions, Pa; assay type: cell-based; set-up: key to Minimum Inhibitory Concentration (MIC) / Minimum bactericidal and fungicidal concentrations (MBC, MFC): – means non-active
Method in brief: as §1

HuTu 80 cells = experiment: Cell cycle analysis, propidium iodide flow cytometry; assay type: cell-based, human; conditions: HuTu 80, IC50, 48 h, compared with the control
Procedure: The DNA content and cell-cycle distribution after compounds 4b, 5b, 6a, and 8 IC50 concentrations were estimated by flow cytometry. After washing with PBS, treated cells were suspended in 150 μL of PBS, then 0.5 mL of phosphate-citrate buffer (0.05 M, pH 4.0) was added, and the suspension was incubated at room temperature for 5 min to facilitate the extraction of low-molecular-weight DNA. Following centrifugation, the cells were resuspended in 150 μL DNA staining solution (20 μg/mL propidium iodide, 200 μg/mL […]) and incubated in the CO2 incubator (37 °C for 30 min). The distribution of the cell cycle was determined by fluorescence analysis of HuTu 80 cells stained with propidium iodide using Guava easyCyte (Guava easyCyte).

[25] = calculated relative to the cell line WI38 (a)
[26] = calculated relative to the cell line Chang liver (b)
[27] = reference normal cell line not marked at the place (ns cells)

| SMILES | IC50 (MCF-7 [2]) | MIC ([5]; Bc) | MIC [6] | MBC [6] | IC50 (HuTu 80 [10]) | Minimum Inhibitory Concentration (MIC) [11] | Minimum bactericidal and fungicidal concentrations (MBC, MFC) [11] | IC50 (PANC-1 [12]) | MIC (MRSA-2) | MBC (MRSA-2) | IC50 (M-HeLa [13]) | IC50 (Hep G2 [15]) | Minimum bactericidal and fungicidal concentrations (MBC, MFC) [17] | MIC [17] | IC50 (A549 [18]) | selectivity index (SI) (SK-OV-3 [19]) | IC50 (DU-145 [20]) | IC50 (SK-OV-3 [21]) | MIC (MRSA-1) | MBC (MRSA-1) | other results |
| --- | --- | --- | --- | --- | --- | --- | --- | --- | --- | --- | --- | --- | --- | --- | --- | --- | --- | --- | --- | --- | --- |
| CCCCCCCC[P+](c1ccccc1)(c1ccccc1)c1ccccc1 [compound 8, Octyltriphenylphosphonium iodide, reference compound] | 4.2 ± 0.3 µM | 0.9 ± 0.07 µM | 0.9 ± 0.07 µM | 62.5 ± 5.3 µM | 0.09 ± 0.006 µM | – | – | 0.3 ± 0.02 µM | 3.9 ± 0.3 µM | 15.6 ± 1.3 µM | 0.45 ± 0.04 µM | 1.6 ± 0.1 µM | – | 15.6 ± 1.2 µM | 8.7 ± 0.7 µM | ns (ns—no selectivity) | 0.4 ± 0.03 µM | 9.8 ± 0.7 µM | 1.9 ± 0.1 µM | 15.6 ± 1.2 µM | selectivity index (SI) (Hep G2 [1]; [25]): 5.8; selectivity index (SI) (DU-145 [3]; [25]): 23; selectivity index (SI) (A549 [4]; [25]): 1.1; MBC [5]: 500 ± 47 µM; selectivity index (SI) (MCF-7 [7]; [25]): 2.2; selectivity index (SI) (HuTu 80 [8]; [25]): 102; selectivity index (SI) (PANC-1 [9]; [25]): 31; selectivity index (SI) (PC3; [25]): 23; selectivity index (SI) (M-HeLa [14]; [25]): 20; selectivity index (SI) (T98G [16]; [25]): 15; Minimum bactericidal and fungicidal concentrations (MBC, MFC) [22]: –; MIC ([22]; Escherichia coli, ATCC25922, read-out: Minimum Inhibitory Concentration (MIC)): 500 ± 47 µM; IC50 (T98G [23]): 0.6 ± 0.05 µM; Minimum Inhibitory Concentration (MIC) [24]: –; Minimum bactericidal and fungicidal concentrations (MBC, MFC) [24]: –; effect on cell cycle (in words) (HuTu 80 cells): significant delay of cells in the G0/G1 phase |
| CCCCCCCC[P+](N(CC)CC)(N(CC)CC)N(CC)CC [4b, Tris(diethylamino)(octyl)phosphonium iodide] | 2.9 ± 0.2 µM | 7.8 ± 0.7 µM | 15.6 ± 1.3 µM | 31.3 ± 2.3 µM | 3.2 ± 0.2 µM | – | – | 2.3 ± 0.1 µM | 15.6 ± 1.2 µM | 125 ± 9 µM | 1.8 ± 0.1 µM | 2.9 ± 0.2 µM | – | 250 ± 19 µM | 15.4 ± 1.2 µM | ns (ns—no selectivity) | 4.2 ± 0.3 µM | 26.3 ± 1.8 µM | 15.6 ± 0.3 µM | 500 ± 47 µM | selectivity index (SI) (Hep G2 [1]; [26]): 1.4; selectivity index (SI) (DU-145 [3]; [27]): ns (ns—no selectivity); selectivity index (SI) (A549 [4]; [27]): ns (ns—no selectivity); Minimum bactericidal and fungicidal concentrations (MBC, MFC) ([5]; Bc): –; selectivity index (SI) (MCF-7 [7]; [26]): 1.4; selectivity index (SI) (HuTu 80 [8]; [26]): 1.3; selectivity index (SI) (PANC-1 [9]; [26]): 1.7; selectivity index (SI) (PC3; [27]): ns (ns—no selectivity); selectivity index (SI) (M-HeLa [14]; [26]): 2.2; selectivity index (SI) (T98G [16]; [27]): ns (ns—no selectivity); Minimum Inhibitory Concentration (MIC) [22]: –; Minimum bactericidal and fungicidal concentrations (MBC, MFC) [22]: –; IC50 (T98G [23]): 5.9 ± 0.4 µM; Minimum Inhibitory Concentration (MIC) [24]: –; Minimum bactericidal and fungicidal concentrations (MBC, MFC) [24]: –; effect on cell cycle (in words) (HuTu 80 cells): significant delay of cells in the G0/G1 phase |
| CCCCCC[P+](c1ccccc1)(c1ccccc1)N(CC)CC [6a, (Diethylamino)(hexyl)diphenylphosphonium iodide] | 17 ± 1.3 µM | 31.3 ± 2.3 µM | 62.5 ± 5.5 µM | 125 ± 10 µM | 0.1 ± 0.007 µM | – | – | 5.5 ± 0.4 µM | 62.5 ± 5.6 µM | 62.5 ± 5.6 µM | 5.8 ± 0.4 µM | 34.4 ± 2.4 µM | – | 125 ± 11 µM | 48.2 ± 3.4 µM | ns (ns—no selectivity) | 2.6 ± 0.3 µM | 36.8 ± 2.6 µM | 62.5 ± 5.3 µM | 500 ± 47 µM | selectivity index (SI) (Hep G2 [1]; [27]): ns (ns—no selectivity); selectivity index (SI) (DU-145 [3]; [25]): 11; selectivity index (SI) (A549 [4]; [27]): ns (ns—no selectivity); MBC [5]: 500 ± 46 µM; selectivity index (SI) (MCF-7 [7]; [25]): 1.6; selectivity index (SI) (HuTu 80 [8]; [25]): 277; selectivity index (SI) (PANC-1 [9]; [25]): 5.0; selectivity index (SI) (PC3; [25]): 6.9; selectivity index (SI) (M-HeLa [14]; [25]): 4.8; selectivity index (SI) (T98G [16]; [25]): 1.5; Minimum Inhibitory Concentration (MIC) [22]: –; Minimum bactericidal and fungicidal concentrations (MBC, MFC) [22]: –; IC50 (T98G [23]): 18.4 ± 1.5 µM; Minimum Inhibitory Concentration (MIC) [24]: –; Minimum bactericidal and fungicidal concentrations (MBC, MFC) [24]: –; effect on cell cycle (in words) (HuTu 80 cells): slight change in the cell cycle |
